Assay results taken from paper PMC9377236, “Cytotoxic effects of extracts obtained from plants of the Oleaceae family: bio-guided isolation and molecular docking of new secoiridoids from Jasminum humile” (Pharmaceutical Biology, 2022).
≈ marks a conversion by molar mass, not a printed value.

Experiments:
[1] = tested on: HepG-2 cell line; assay: MTT cytotoxicity assay, HepG-2; assay type: cell-based, human; conditions: for IC50: Homo sapiens, HepG2, HepG-2 liver cancer cell line, MTT assay, mean ± SD; for SI, HepG-2: selectivity index = CC50 (Vero) / IC50 (HepG-2)
Procedure: (§1) The cytotoxic potential was measured against Vero cells as well as MCF-7, HepG-2, and THP-1 cell lines provided from VACSERA, Agouza, Cairo, Egypt using a microplate 3-(4,5-dimethythiazole-2yl)-2,5-diphenyl-tetrazolium bromide (MTT) method (Ashour et al. [2006]; Njeru and Muema [2007]). All experiments were repeated three times with doxorubicin (Sigma, USA) as a positive control and 0.1% DMSO media as the negative control, respectively.
(§2) The selectivity index (SI) was obtained after dividing the IC50 value of Vero cells (which can be expressed as CC50) by the specific IC50 of cancer cell lines. High (SI) indicates high anticancer activity and low cellular toxicity. Selectivity was considered to be valuable for those with (SI) greater than three (Oliveira et al. [2015]; Tsemeugne et al. [2021]; Yousefbeyk et al. [2022]).
(§3) All statistical analyses were performed using GraphPad Prism version 9.2.0 to calculate the half-maximal inhibitory concentration (IC50) and the half-maximal cytotoxic concentration (CC50) where the level of significance was set at ([…]). Quantitative data were expressed as mean ± standard deviation (SD). GraphPad Prism version 9.2.0 was also used to create multiple bar charts of the cytotoxic activity and cell viability.

[2] = tested on: THP-1 cell line; assay: MTT cytotoxicity assay, THP-1; assay type: cell-based, human; conditions: for IC50: Homo sapiens, THP-1 leukaemia cell line, MTT assay, mean ± SD; for SI, THP-1: selectivity index = CC50 (Vero) / IC50 (THP-1)
Procedure: as §1, §2, §3

[3] = MTT assay, cytotoxic concentration (CC50) on Vero cells; assay type: cell-based; conditions: African green monkey, mean ± SD, three repeats
Procedure: as §1, §3

[4] = tested on: MCF-7 cell line; assay: MTT cytotoxicity assay, MCF-7; assay type: cell-based, human; conditions: for IC50: Homo sapiens, MCF7, MCF-7 breast cancer cell line, MTT assay, mean ± SD; for SI, MCF-7: selectivity index = CC50 (Vero) / IC50 (MCF-7)
Procedure: as §1, §2, §3

Row | SMILES | IC50 [1] | SI, HepG-2 [1] | IC50 [2] | SI, THP-1 [2] | CC50 [3] | IC50 [4] | SI, MCF-7 [4]
1 | O=c1ccc2ccccc2o1 [Compound 6, coumarin] | 165 ± 7.08 µg/mL (≈ 1130 µM) | 1.19 | 296 ± 25.7 µg/mL (≈ 2020 µM) | 0.66 | 196 ± 13.3 µg/mL (≈ 1340 µM) | 194 ± 8.8 µg/mL (≈ 1330 µM) | 1.01
2 | OC[C@@H](O)[C@@H](O)[C@H](O)[C@H](O)CO [Compound 7, D-mannitol] | 69.1 ± 12.3 µg/mL (≈ 379 µM) | 2.52 | 214 ± 22.1 µg/mL (≈ 1180 µM) | 0.81 | 173 ± 6.2 µg/mL (≈ 951 µM) | 161 ± 11.9 µg/mL (≈ 882 µM) | 1.09
3 | CC=C1C(OC)OC=C2C(=O)OC3CC(C(C)CO)C(COC(=O)CC21)C3C (single isomer, unassigned; (-)) [Compound 1, (-)-1-Methoxyjasmigenin] | 59.8 ± 1.45 µg/mL (≈ 152 µM) | 1.03 | 91.5 ± 14.9 µg/mL (≈ 232 µM) | 0.67 | 61.7 ± 1.26 µg/mL (≈ 156 µM) | 78.9 ± 1.79 µg/mL (≈ 200 µM) | 0.78
4 | CC=C1C(OC2OC(CO)C(O)C(O)C2O)OC=C2C(=O)OCC(C)C3(O)CCC(C)C3COC(=O)CC21 (centres unmarked) [Compound 4, isojasminin] | 33.5 ± 2.32 µg/mL (≈ 61.7 µM) | 3.03 | 51.1 ± 10.3 µg/mL (≈ 94.1 µM) | 1.99 | 102 ± 3.03 µg/mL (≈ 187 µM) | 43.1 ± 3.02 µg/mL (≈ 79.5 µM) | 2.35
5 | CC(CO)C1CC2OC(=O)C3=COC(C)C(C=O)C3CC(=O)OCC1C2C (single isomer, unassigned; (-)) [Compound 2, (-)-1-Methyl-9-aldojasmigenin] | 43.3 ± 4.78 µg/mL (≈ 114 µM) | 1.40 | 68.9 ± 9.71 µg/mL (≈ 181 µM) | 0.88 | 60.5 ± 2.72 µg/mL (≈ 159 µM) | 60.6 ± 2.3 µg/mL (≈ 159 µM) | 1.00
6 | CC=C1C(OC2OC(CO)C(O)C(O)C2O)OC=C2C(=O)OC3CC(C(C)CO)C(COC(=O)CC21)C3C (centres unmarked) [Compound 3, jasminin] | 44.2 ± 4.32 µg/mL (≈ 81.5 µM) | 1.01 | 82.7 ± 15.7 µg/mL (≈ 152 µM) | 0.54 | 44.7 ± 1.84 µg/mL (≈ 82.4 µM) | 28.6 ± 1.18 µg/mL (≈ 52.7 µM) | 1.57
7 | COc1cccc2c1C(=O)c1c(O)c3c(c(O)c1C2=O)C[C@@](O)(C(=O)CO)C[C@@H]3O[C@H]1C[C@H](N)[C@H](O)[C@H](C)O1 [Doxorubicin, doxorubicin, reference compound] | 31.6 ± 6.58 µg/mL (≈ 58.2 µM) | 3.65 | 47.8 ± 7.03 µg/mL (≈ 88 µM) | 2.41 | 116 ± 6.1 µg/mL (≈ 213 µM) | 52.8 ± 5.36 µg/mL (≈ 97.1 µM) | 2.19
8 | CC=C1C(OC2OC(CO)C(O)C(O)C2O)OC=C(C(=O)OC)C1CC(=O)OCC(C)C1CC2OC(=O)C3=COC(OC4OC(CO)C(O)C(O)C4O)C(=CC)C3CC(=O)OCC1C2C (centres unmarked) [Compound 5, jasmoside] | 66.5 ± 8.15 µg/mL (≈ 71.6 µM) | 3.16 | 27.6 ± 4.63 µg/mL (≈ 29.7 µM) | 7.62 | 210 ± 5.05 µg/mL (≈ 226 µM) | 41.3 ± 1.77 µg/mL (≈ 44.5 µM) | 5.09
